Patent US20210121418A1, “TREATMENT OF PROTEINURIA” (SYNACT PHARMA APS, priority 2018, published 2021)

Columns and labels:
[1] = tested on: MC3R; conditions: cited from earlier work
[2] = tested on: macrophages; conditions: cited from earlier work
[3] = tested on: peritonitis; conditions: oral; cited from earlier work
[4] = tested on: experimental inflammatory arthritis; conditions: in vivo; cited from earlier work
[5] = Effect of meal timing and apple juice on absorption of the suspension; type: in vivo
Description: The effect of food intake on the absorption of AP1189 in the current suspension formulation has not been systematically evaluated. However, it has been shown that the plasma profile of the compound, whether the first meal was served 1 hour or 4 hours post-dosing in the fasting state, is very similar.

[6] = tested on: Passive Heymann Nephritis; assay: Passive Heymann Nephritis, experiment 1 (ip dosing); type: in vivo, rat; conditions: for FEAlb (fractional albumin excretion) reduced by: 10 mg/kg ip once daily; for proteinuria compared to control rats (vehicle): day 28 and day 42
Description: Passive Heymann Nephritis was introduced to Male Sprague-Dawley rats by administration of anti-Fx1A serum (PTX-002S, Probetex, San Antonio, Tex., USA) Probetex, lot 169-6H) on study day 0 (1 ml serum) and on study day 7 (0.25 serum) into the jugular vein by slow injection during isoflurane anaesthesia. […] Pharmacological intervention with control compound or test compound was initiated on day 14.
In one experiment (experiment 1) test compound 1 dissolved in isotonic saline was given once daily by intraperitoneal (ip) injections at a dose of 10 mg/kg (n=12) with animals treated with isotonic saline injections as controls (n=12).
In experiment 1 twenty-four hours urine collection were performed at three occasions, at day 14 following induction of nephritis, i.e. at the time point where pharmacological intervention was initiated, at day 28 and at day 42 following induction of nephritis. For urine collection the rats were placed in metabolic cages followed by a blood sample for measurement of plasma concentrations of creatinine and albumin. Likewise, the urine concentration of creatinine and albumin were determined and so was the volume of the 24-hours urine production.
The blood sample was taken from the abdominal vein during pentobarbital (0.2-0.3 mL/rat ip; Dolethal, Vetoquinol via Centravet, Lapalisse, France). The collected blood was transferred into tubes coated with EDTA and centrifuged (10 minutes, 1000 g, 4° C.) for plasma collection. Plasma samples were stored at −80° C. until quantification of creatinine and Albumin.
Albumin and creatinine in urine and plasma were quantified using a ABX Pentra 400 Clinical Chemistry analyzer (HORIBA).
Albumin excretion rate was determined as follows:
24 hours urine production×concentration of Albumin in urine.
Fractional Albumin excretion was determined as follows:
((Urine concentration of […]×24 hours urine production)/plasma concentration of albumin)/Creatinine Clearance×100
All data presented as mean±Standard error of mean (SE). Statistical analyses were made by standard unpaired t-test, with p<0.05 considered statistical significant

[7] = Phase I Part I, single ascending dose, oral suspension (PK and safety)
[8] = tested on: Passive Heymann Nephritis; assay: Passive Heymann Nephritis, experiment 2 (oral gavage vs ACTH(1-24)); type: in vivo, rat; conditions: 4 weeks treatment
Description: Passive Heymann Nephritis was introduced to Male Sprague-Dawley rats by administration of anti-Fx1A serum (PTX-002S, Probetex, San Antonio, Tex., USA) Probetex, lot 169-6H) on study day 0 (1 ml serum) and on study day 7 (0.25 serum) into the jugular vein by slow injection during isoflurane anaesthesia. […] In another experiment (experiment 2) test compound 1 was given once daily by oral gavage. […] In this experiment treatment effect of test compound 1 was compared to the effect of ACTH(1-24) as ACTH from the literature has been described to have treatment effects on proteinuria in the applied experimental model. […] Likewise, the urine concentration of creatinine and albumin were determined and so was the volume of the 24-hours urine production. The blood sample was taken from the abdominal vein during pentobarbital (0.2-0.3 mL/rat ip; Dolethal, Vetoquinol via […], France). The collected blood was transferred into tubes coated with EDTA and centrifuged (10 minutes, 1000 g, 4° C.) for plasma collection. Plasma samples were stored at -80° C. until quantification of creatinine and Albumin. […] Statistical analyses were made by standard unpaired t-test, with p<0.05 considered statistical significant

[9] = tested on: melanocytes; conditions: cited from earlier work
[10] = clinical; conditions: human, plasma, oral, 200 mg
[11] = clinical; conditions: male, human, plasma
[12] = tested on: MC1R; conditions: cited from earlier work
[13] = Phase I Part IV, 14-day repeated dose, oral suspension (PK and safety); conditions: for C Max (mean +/− SD, N = 9) / C Trough (Mean +/− SD, N = 9): steady conditions
[14] = tested on: CYP1A2; assay: CYP1A2 induction in human hepatocyte; type: in vitro ADME; conditions: 10 μM

SMILES: NC(N)=N/N=C/C=C/c1cccn1-c1ccccc1[N+](=O)[O-] [AP1189, (E)-N-trans-{3-[1-(2-nitrophenyl)-1H-pyrrol-2-yl]-allylidene}-aminoguanidium acetate]
- ERK1/2 phosphorylation [1]: cause ERK1/2 phosphorylation
- canonical cAMP generation [1]: does not induce canonical cAMP generation
- cytokine release [2]: reduce cytokine release
- anti-inflammatory actions in peritonitis [3]: elicits anti-inflammatory actions in peritonitis and accelerated the resolution phase
- macroscopic and histological parameters of joint disruption [4]: significant reduction of macroscopic and histological parameters of joint disruption
- absorption with a glass of apple juice immediately after dosing [5]: does not reduce the absorption
- plasma profile, first meal 1 hour or 4 hours post-dosing ([5]; dosing in the fasting state): very similar
- reduction in albumin excretion rate ([6]; 10 mg/kg ip once daily from day 14, day 28): 31±8%
- reduction in albumin excretion rate ([6]; 10 mg/kg ip once daily from day 14, day 42): 48±10%
- FEAlb (fractional albumin excretion) reduced by ([6]; day 28): 48±5%
- FEAlb (fractional albumin excretion) reduced by ([6]; day 42): 45±11%
- proteinuria compared to control rats (vehicle) [6]: significantly reduces proteinuria
- proteinuria compared to control rats (vehicle) ([6]; listed as test compound 1): significant reduction in proteinuria
- reduction in albumin excretion rate ([6]; day 482 as printed in FIG. 1 legend): 48±10%
- Cmax and AUCs, female compared to male subjects ([7]; 400 mg): slightly increased
- apparent volume of distribution, female compared to male ([7]; 400 mg): similar
- exposure at maximum administrated dose above expected therapeutic exposure level ([7]; 800 mg): more than 10 ×
- increase of ALT above the normal upper value ([7]; 400-800 mg): up to 1.6
- TEAEs considered related to the study treatment ([7]; after administration of 200 to 800 mg): 21 events
- apparent clearance ([7]; female subjects, 400 mg): 17.26 L/h
- QTcF and other cardiac parameters, 24-hours Holter ECG ([7]; in vivo): No AP1189 associated increases in QTcF
- changes in vital signs ([7]; in vivo): No treatment-related changes in vital signs
- frequency of related gastrointestinal TEAEs vs dose ([7]; in vivo): increased with the dose
- subjects with isolated increases in aminotransferases ([7]; male subjects on active IMP, 400, 600, 800 mg): 4 subjects
- inter-individual variability for Cmax and AUCs ([7]; male subjects, 50-800 mg): < 36%
- severe or serious adverse events ([7]; single doses 15-800 mg): No severe AEs nor serious AEs were reported
- GFR (creatinine clearance) ([8]; 20 mg/kg oral gavage): 3.12 ± 0.14 mL/min
- fraction albumin excretion (FEAlb) ([8]; 20 mg/kg oral gavage): 0.045±0.04%
- fraction albumin excretion (FEAlb) ([8]; 40 mg/kg oral gavage): 0.35±0.05%
- melanogenesis [9]: no melanogenesis was induced
- Cmax [10]: ≤ 900 ng/mL
- Vd/F ([11]; oral): 556 to 784 L
- half-life ([11]; oral): ~20 h
- Tmax ([11]; po): 1 to 4 h
- ERK1/2 phosphorylation [12]: cause ERK1/2 phosphorylation
- canonical cAMP generation [12]: does not induce canonical cAMP generation
- C Max (mean +/− SD, N = 9) ([13]; 50 mg once daily): 180 ± 38 ng/mL
- C Trough (Mean +/− SD, N = 9) ([13]; 50 mg once daily): 46 ± 14 ng/mL
- C Max (mean +/− SD, N = 9) ([13]; 100 mg once daily): 427 ± 76 ng/mL
- C Trough (Mean +/− SD, N = 9) ([13]; 100 mg once daily): 100 ± 25 ng/mL
- exposure at maximum administrated dose above expected therapeutic exposure level ([13]; 200 mg): 5 ×
- exposure based on Cmax vs expected therapeutic range ([13]; 200 mg, group): ≤ 5 ×
- exposure based on Cmax vs expected therapeutic range ([13]; 200 mg, individual with the highest exposure): more than 7 ×
- C Trough (Mean +/− SD, N = 9) ([13]; 300 mg once daily): 186 ± 45 ng/mL
- severe or serious adverse events ([13]; 50, 100 or 200 mg once daily, 14 days): No severe AEs nor serious AEs were reported
- steady state achieved ([13]; Cohort 1, 50 mg once daily): 7 days
- peak increase compared to cohort 1 ([13]; Cohort 2, 100 mg vs 50 mg): approximately 2 fold
- subjects with isolated increases in aminotransferases ([13]; Cohort 3 (200 mg), treated with active): 3 subjects
- time Cmax was reached post dosing ([13]; Cohort 3, 200 mg once daily): 1 to 2 h
- safety profile ([13]; for 50 mg or 100 mg doses for four weeks): good safety profile
- TEAEs considered possibly related to the study treatment ([13]; gastrointestinal, 50 mg and 200 mg dose levels): 4 events
- QTcF, repeated standard 12 lead safety ECG ([13]; in vivo): No individual QTcF clinically significant values were observed
- CYP1A2 induction [14]: signal for CYP1A2 induction has been observed
